For assay [1], the target named is T1, human IGF1R (hIGF1R) (Homo sapiens, UniProt P08069).
T1 construct: containing amino acid residues 957-1367 of human IGF1R; made in house; host or cells: Sf9 cells (baculovirus)
The experiment in a line: TR-FRET kinase assay of purified hIGF1R. The note with it: activated hIGF1R 0.5 nM, 10 μM ATP, values given as pIC50 category, read-out: IGF-1R pIC50 (converted). The format is biochemical.

Assay [2] has as its system Colo205. The experiment in a line: Inhibition of cell proliferation (CellTiter-Glo or InCell analyzer), Colo205. The format is cell-based. The note with it: Homo sapiens, COLO 205, 72 h / 3 days, values given as IC50 category. An outline of the steps:
In one
On the technique in general: In ATP-based viability assays light output follows the ATP content of the culture.

Assay [3] has as its system NCI-H929. The experiment in a line: Inhibition of cell proliferation (CellTiter-Glo or InCell analyzer), NCI-H929. It counts as cell-based. The note with it: Homo sapiens, 72 h / 3 days, values given as IC50 category. An outline of the steps:
In one

In assay [4] the target is T2, NIH-3T3 cells overexpressing human IGF-1R (Homo sapiens, UniProt P08069).
T2 construct: expressed in transfected cells; host or cells: NIH-3T3 (mouse fibroblasts)
T2 sequence (P08069 31-1367): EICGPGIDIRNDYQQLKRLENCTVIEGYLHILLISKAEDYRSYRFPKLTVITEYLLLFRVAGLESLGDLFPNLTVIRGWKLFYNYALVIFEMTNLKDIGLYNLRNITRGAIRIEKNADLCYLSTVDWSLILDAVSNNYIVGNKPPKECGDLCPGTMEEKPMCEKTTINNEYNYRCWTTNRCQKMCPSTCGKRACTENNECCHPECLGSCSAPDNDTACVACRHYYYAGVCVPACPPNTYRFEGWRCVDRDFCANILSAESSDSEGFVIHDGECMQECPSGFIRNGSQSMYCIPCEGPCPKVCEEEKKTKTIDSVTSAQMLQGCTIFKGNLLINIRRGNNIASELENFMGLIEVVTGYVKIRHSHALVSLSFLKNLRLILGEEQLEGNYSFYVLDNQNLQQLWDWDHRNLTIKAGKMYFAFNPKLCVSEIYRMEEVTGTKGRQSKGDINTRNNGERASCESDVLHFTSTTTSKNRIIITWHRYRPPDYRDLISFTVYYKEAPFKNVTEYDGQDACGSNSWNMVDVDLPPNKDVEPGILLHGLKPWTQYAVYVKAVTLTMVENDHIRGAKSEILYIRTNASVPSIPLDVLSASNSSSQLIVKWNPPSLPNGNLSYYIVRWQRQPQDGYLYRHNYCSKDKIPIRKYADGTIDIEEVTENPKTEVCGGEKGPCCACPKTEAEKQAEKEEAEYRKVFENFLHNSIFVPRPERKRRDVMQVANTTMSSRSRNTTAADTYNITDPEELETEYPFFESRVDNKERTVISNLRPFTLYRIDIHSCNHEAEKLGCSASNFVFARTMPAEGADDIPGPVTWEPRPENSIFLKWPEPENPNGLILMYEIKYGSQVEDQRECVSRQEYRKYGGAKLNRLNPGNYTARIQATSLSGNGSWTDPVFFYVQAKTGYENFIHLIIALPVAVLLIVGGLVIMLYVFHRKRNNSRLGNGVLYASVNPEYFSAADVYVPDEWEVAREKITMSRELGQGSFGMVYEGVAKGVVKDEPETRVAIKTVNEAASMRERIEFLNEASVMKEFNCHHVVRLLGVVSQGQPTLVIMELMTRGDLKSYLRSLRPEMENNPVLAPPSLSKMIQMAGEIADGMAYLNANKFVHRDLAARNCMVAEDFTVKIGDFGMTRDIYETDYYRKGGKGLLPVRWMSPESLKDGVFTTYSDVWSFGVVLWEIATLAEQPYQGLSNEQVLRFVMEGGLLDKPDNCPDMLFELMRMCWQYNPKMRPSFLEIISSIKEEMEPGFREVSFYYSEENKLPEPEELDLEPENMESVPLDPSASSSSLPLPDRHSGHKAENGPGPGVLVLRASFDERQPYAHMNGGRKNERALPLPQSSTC
The experiment in a line: IGF-1R cellular autophosphorylation (DELFIA). It counts as cell-based. The gist of the method:
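Receptor autophosphorylation measured by DELFIA, capturing IGF-1R or IRβ and detecting with europium anti-pTyr, reported as percent of IGF-1- or insulin-stimulated signal. Compounds (30 uM to 1.5 nM) added 2 h before ligand, then 15 min stimulation (IGF-1 30 ng/ml or insulin 3 ug/ml).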

T1 sequence (P08069 957-1367): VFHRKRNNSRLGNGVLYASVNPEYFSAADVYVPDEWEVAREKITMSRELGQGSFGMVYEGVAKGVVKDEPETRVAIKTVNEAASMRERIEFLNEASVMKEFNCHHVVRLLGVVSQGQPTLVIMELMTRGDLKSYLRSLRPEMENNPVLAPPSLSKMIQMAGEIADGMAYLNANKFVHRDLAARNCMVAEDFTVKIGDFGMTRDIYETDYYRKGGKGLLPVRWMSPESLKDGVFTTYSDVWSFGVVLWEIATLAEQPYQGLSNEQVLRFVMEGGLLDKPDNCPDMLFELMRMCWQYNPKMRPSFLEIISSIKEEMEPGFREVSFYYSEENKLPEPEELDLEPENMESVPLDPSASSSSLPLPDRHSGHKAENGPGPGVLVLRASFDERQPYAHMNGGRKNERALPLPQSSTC

For the molecule `COc1cc(N2CCOCC2)ccc1Nc1nc(Nc2cc(F)ccc2C(N)=O)c2cc[nH]c2n1` [Example 83, 4-fluoro-2-[(2-{[2-(methyloxy)-4-(4-morpholinyl)phenyl]amino}-1H-pyrrolo[2,3-d]pyrimidin-4-yl)amino]benzamide], the IC50 is 1.26 to 3.98 nM in assay [1], greater than 1000 nM in assay [2], 250 to 1000 nM in assay [3] and less than 100 nM in assay [4].

For the molecule `CCCN1CCC=C(c2ccc(Nc3nc(Nc4cc(F)ccc4C(=O)N[C@@H](C)CC)c4cc[nH]c4n3)c(OC)c2)C1` [Example 87, 4-fluoro-2-[(2-{[2-(methyloxy)-4-(1-propyl-1,2,5,6-tetrahydro-3-pyridinyl)phenyl]amino}-1H-pyrrolo[2,3-d]pyrimidin-4-yl)amino]-N-[(1S)-1-methylpropyl]benzamide], the IC50 was 1.26 to 3.98 nM in assay [1], 250 to 1000 nM in assay [2] and greater than 500 nM in assay [4].

Regarding `COc1cc(N2CCOC[C@@H]2C)ccc1Nc1nc(Nc2cccc(F)c2C(N)=O)c2cc[nH]c2n1` [Example 49, 2-fluoro-6-[(2-{[4-[(3S)-3-methyl-4-morpholinyl]-2-(methyloxy)phenyl]amino}-1H-pyrrolo[2,3-d]pyrimidin-4-yl)amino]benzamide], the figures for the IC50 in assay [1], in assay [2] and in assay [4] were 1.26 to 3.98 nM, less than 250 nM and 100 to 500 nM, respectively.

Regarding `COc1cc(N2CCC(N3CC[C@H](F)C3)CC2)ccc1Nc1nc(Nc2cccc(F)c2C(N)=O)c2cc[nH]c2n1` [Example 43, 2-fluoro-6-[(2-{[4-{4-[(3S)-3-fluoro-1-pyrrolidinyl]-1-piperidinyl}-2-(methyloxy)phenyl]amino}-1H-pyrrolo[2,3-d]pyrimidin-4-yl)amino]benzamide], the IC50 in assay [1] is 1.26 to 3.98 nM; in assay [2] it was 250 to 1000 nM; in assay [4], 100 to 500 nM.

In the case of `COc1cc(N2CCC(N3CC[C@@H](F)C3)CC2)ccc1Nc1nc(Nc2cc(F)ccc2C(N)=O)c2cc[nH]c2n1` [Example 76, 4-fluoro-2-[(2-{[4-{4-[(3R)-3-fluoro-1-pyrrolidinyl]-1-piperidinyl}-2-(methyloxy)phenyl]amino}-1H-pyrrolo[2,3-d]pyrimidin-4-yl)amino]benzamide], the IC50 in assay [1] is 0.251 to 1 nM; in assay [2], 250 to 1000 nM; in assay [4], less than 100 nM.

In the case of `CN(C)CC(=O)Nc1ccc(Cl)c(Nc2nc(Nc3ccccc3C(N)=O)c3cc[nH]c3n2)c1` [Example 18, 2-{[2-({2-chloro-5-[(N,N-dimethylglycyl)amino]phenyl}amino)-1H-pyrrolo[2,3-d]pyrimidin-4-yl]amino}benzamide], the IC50 in assay [1] is 0.251 to 1 nM; in assay [2], less than 250 nM; in assay [4], less than 100 nM.

Consider `COc1cc(N2CCC(N3CCOCC3)CC2)ccc1Nc1nc(Nc2cc(F)c(F)cc2C(N)=O)c2cc[nH]c2n1` [Example 101, 4,5-difluoro-2-{[2-({2-(methyloxy)-4-[4-(4-morpholinyl)-1-piperidinyl]phenyl}amino)-1H-pyrrolo[2,3-d]pyrimidin-4-yl]amino}benzamide], for which the IC50 in assay [1] was 0.251 to 1 nM; in assay [2], 250 to 1000 nM; in assay [4], less than 100 nM.

As for `COc1ccc(N2CCN(C(C)C)CC2)cc1Nc1nc(Nc2ccccc2C(N)=O)c2cc[nH]c2n1` [Example 10, 2-[(2-{[5-[4-(1-methylethyl)-1-piperazinyl]-2-(methyloxy)phenyl]amino}-1H-pyrrolo[2,3-d]pyrimidin-4-yl)amino]benzamide], the IC50 is 1.26 to 3.98 nM in assay [1], less than 250 nM in assay [2] and 100 to 500 nM in assay [4].

As to `COc1cc(N2CCC(N3CCCCC3)CC2)ccc1Nc1nc(Nc2cc(F)c(F)cc2C(N)=O)c2cc[nH]c2n1` [Example 100, 2-[(2-{[4-(1,4′-bipiperidin-1′-yl)-2-(methyloxy)phenyl]amino}-1H-pyrrolo[2,3-d]pyrimidin-4-yl)amino]-4,5-difluorobenzamide], the IC50 was 0.251 to 1 nM in assay [1], less than 250 nM in assay [2] and less than 100 nM in assay [4].

As for `COc1cc(N2CCN(C(C)C)CC2)ccc1Nc1nc(Nc2cc(F)cc(OC)c2C(N)=O)c2cc[nH]c2n1` [Example 88], the IC50 was 1.26 to 3.98 nM in assay [1], 250 to 1000 nM in assay [2] and greater than 500 nM in assay [4].

As to `COc1cc(N2CCOC[C@@H]2C)ccc1Nc1nc(Nc2ccc(F)cc2C(N)=O)c2cc[nH]c2n1` [Example 61, 5-fluoro-2-[(2-{[4-[(3S)-3-methyl-4-morpholinyl]-2-(methyloxy)phenyl]amino}-1H-pyrrolo[2,3-d]pyrimidin-4-yl)amino]benzamide], the IC50 is 1.26 to 3.98 nM in assay [1], less than 250 nM in assay [2] and less than 100 nM in assay [4].

In the case of `COc1cc(N2CCN(C(C)C)CC2)ccc1Nc1nc(Nc2ccc(Br)cc2C(N)=O)c2cc[nH]c2n1` [Example 68, 5-bromo-2-[(2-{[4-[4-(1-methylethyl)-1-piperazinyl]-2-(methyloxy)phenyl]amino}-1H-pyrrolo[2,3-d]pyrimidin-4-yl)amino]benzamide], the IC50 is 1.26 to 3.98 nM in assay [1], less than 250 nM in assay [2] and 100 to 500 nM in assay [4].

Consider `COc1ccc(N2CCN(C)CC2)cc1Nc1nc(Nc2ccccc2C(N)=O)c2cc[nH]c2n1` [Example 9, 2-[(2-{[2-(methyloxy)-5-(4-methyl-1-piperazinyl)phenyl]amino}-1H-pyrrolo[2,3-d]pyrimidin-4-yl)amino]benzamide], for which the IC50 is 1.26 to 3.98 nM in assay [1], less than 250 nM in assay [2] and 100 to 500 nM in assay [4].

Regarding `COc1cc(N2CCOCC2)ccc1Nc1nc(Nc2cc(F)c(F)cc2C(N)=O)c2cc[nH]c2n1` [Example 104, 4,5-difluoro-2-[(2-{[2-(methyloxy)-4-(4-morpholinyl)phenyl]amino}-1H-pyrrolo[2,3-d]pyrimidin-4-yl)amino]benzamide], the IC50 in assay [1] was 0.251 to 1 nM; in assay [2], greater than 1000 nM; in assay [4] it was less than 100 nM.

Take `COc1cc(N2CCN(C(C)=O)CC2)ccc1Nc1nc(Nc2cc(F)c(F)cc2C(N)=O)c2cc[nH]c2n1` [Example 103, 2-[(2-{[4-(4-acetyl-1-piperazinyl)-2-(methyloxy)phenyl]amino}-1H-pyrrolo[2,3-d]pyrimidin-4-yl)amino]-4,5-difluorobenzamide]: the results for the IC50 in assay [1], in assay [2] and in assay [4] were 0.251 to 1 nM, less than 250 nM and less than 100 nM, respectively.

`COc1cc(C2=CCN(C(C)C)CC2)ccc1Nc1nc(Nc2cc(F)ccc2C(N)=O)c2cc[nH]c2n1` [Example 72, 4-fluoro-2-[(2-{[4-[1-(1-methylethyl)-1,2,3,6-tetrahydro-4-pyridinyl]-2-(methyloxy)phenyl]amino}-1H-pyrrolo[2,3-d]pyrimidin-4-yl)amino]benzamide]: the IC50 is 0.251 to 1 nM in assay [1], 250 to 1000 nM in assay [2] and less than 100 nM in assay [4].

As for `COc1cc(N2CCC(N3CCOCC3)CC2)ccc1Nc1nc(Nc2ccc(F)cc2C(N)=O)c2cc[nH]c2n1` [Example 59, 5-fluoro-2-{[2-({2-(methyloxy)-4-[4-(4-morpholinyl)-1-piperidinyl]phenyl}amino)-1H-pyrrolo[2,3-d]pyrimidin-4-yl]amino}benzamide], the IC50 is 1.26 to 3.98 nM in assay [1], less than 250 nM in assay [2] and less than 100 nM in assay [4].

Consider `COc1cc(N2CCC(O)CC2)ccc1Nc1nc(Nc2cc(F)c(F)cc2C(N)=O)c2cc[nH]c2n1` [Example 99], for which the values for the IC50 in assay [1], in assay [2] and in assay [4] were 0.251 to 1 nM, 250 to 1000 nM and less than 100 nM, respectively.

Regarding `COc1cc(N2CCN(C(C)C)CC2)c(OC)cc1Nc1nc(Nc2cc(F)ccc2C(N)=O)c2cc[nH]c2n1` [Example 82, 4-fluoro-2-[(2-{[4-[4-(1-methylethyl)-1-piperazinyl]-2,5-bis(methyloxy)phenyl]amino}-1H-pyrrolo[2,3-d]pyrimidin-4-yl)amino]benzamide], the IC50 in assay [1] is 1.26 to 3.98 nM; in assay [2], less than 250 nM; in assay [4], less than 100 nM.

Take `COc1cc(N2CCC(N3CCCC(F)(F)C3)CC2)ccc1Nc1nc(Nc2cc(F)ccc2C(N)=O)c2cc[nH]c2n1` [Example 77, 2-[(2-{[4-(3,3-difluoro-1,4′-bipiperidin-1′-yl)-2-(methyloxy)phenyl]amino}-1H-pyrrolo[2,3-d]pyrimidin-4-yl)amino]-4-fluorobenzamide]: the IC50 in assay [1] is 1.26 to 3.98 nM; in assay [2], 250 to 1000 nM; in assay [4], 100 to 500 nM.

Consider `COc1cc(N2CCC[C@H](O)C2)ccc1Nc1nc(Nc2cc(F)ccc2C(N)=O)c2cc[nH]c2n1` [Example 74, 4-fluoro-2-[(2-{[4-[(3S)-3-hydroxy-1-piperidinyl]-2-(methyloxy)phenyl]amino}-1H-pyrrolo[2,3-d]pyrimidin-4-yl)amino]benzamide], for which the IC50 in assay [1] is 0.251 to 1 nM; in assay [2], less than 250 nM; in assay [4] it was 100 to 500 nM.

For `COc1cc(N2CCC(N3CC[C@H](F)C3)CC2)ccc1Nc1nc(Nc2cc(F)ccc2C(N)=O)c2cc[nH]c2n1` [Example 75, 4-fluoro-2-[(2-{[4-{4-[(3S)-3-fluoro-1-pyrrolidinyl]-1-piperidinyl}-2-(methyloxy)phenyl]amino}-1H-pyrrolo[2,3-d]pyrimidin-4-yl)amino]benzamide], the IC50 in assay [1] was 0.251 to 1 nM; in assay [2] it was less than 250 nM; in assay [4], less than 100 nM.

Turning to `COc1cc(N2CCOC[C@@H]2C)ccc1Nc1nc(Nc2cc(F)c(F)cc2C(N)=O)c2cc[nH]c2n1` [Example 105, 4,5-difluoro-2-[(2-{[4-[(3S)-3-methyl-4-morpholinyl]-2-(methyloxy)phenyl]amino}-1H-pyrrolo[2,3-d]pyrimidin-4-yl)amino]benzamide], the IC50 was 0.251 to 1 nM in assay [1], less than 250 nM in assay [2] and less than 100 nM in assay [4].

For the origin of these results see US7981903B2, “2-[2-{phenylamino}-1H-pyrrolo[2,3-D]pyrimidin-4-yl)amino] benzamide derivatives as IGF-1R inhibitors for the treatment of cancer” (GlaxoSmithKline LLC, priority 2007, dated 2011).
